Here are results for two molecules from patent US12419863B2, “Pharmaceutical composition for use in treatment of hypertrophic cardiomyopathy” (CELLTRION INC., priority 2018, dated 2025).

The conditions of data set [1]: patients with hypertrophic cardiomyopathy; no control group; cited from earlier work.
Data set [2] can be described thus: Clinical safety and tolerability evaluation with electrocardiogram, repeated oral administration (Example 2). It counts as in vivo, human. Conditions: cohorts 4 and 5: 200 mg once a day for 5 days and 300 mg once a day for 14 days, healthy subjects.
Data set [3] can be described thus: Clinical safety and tolerability evaluation with 12-electrode electrocardiogram, single oral administration (Example 1). Conditions: healthy subjects; for QRS / QTcF: oral.
Method: Randomized, double-blind, placebo-controlled, sequential, ascending, single dosing studies were conducted to evaluate safety, tolerability, pharmacokinetics and pharmacodynamics of cibenzoline.
In this study, a total of 24 subjects were randomly assigned 1:1:1 to three cohorts and proceeded in a total of four stages: screening, treatment period 1, withdrawal period, and treatment period 2. The ratio between the dosed group and the non-dosed group (placebo) is assigned as 6:2.
The main endpoints are safety, tolerability and side effects, and the clinical test items are corrected QT interval (calculated by Fridericia formula) [QTc(F)]), QT interval, and QRS interval, PR interval, and 12-electrode electrocardiogram including ventricular rate, vital signs (blood pressure, pulse, body temperature, respiration rate), hypersensitivity reaction (determined by electrocardiogram recording and vital signs), clinical inspection evaluation (hematology, blood chemistry, urinalysis, etc.), adverse reactions (including serious adverse reactions).
Setting [4] is: Cohort 1: 200 mg once, Day 1, 1.5 h after administration.
Where [5] appears, read: Cohort 1: 200 mg once, Day 1, 3 h after administration.
Where [6] appears, read: Cohort 1: 200 mg once, Day 1, 8 h after administration.
Where [7] appears, read: Cohort 1: 200 mg once, Day 1 before administration (baseline).
Setting [8] is: Cohort 2: 300 mg once, Day 1, 1.5 h after administration.
Where [9] appears, read: Cohort 2: 300 mg once, Day 1, 3 h after administration.
[10] abbreviates: Cohort 2: 300 mg once, Day 1, 8 h after administration.
[11] abbreviates: Cohort 2: 300 mg once, Day 1 before administration (baseline).

Turning to `c1ccc(C2(c3ccccc3)CC2C2=NCCN2)cc1` (racemic) [cibenzoline, 2-(2,2-diphenylcyclopropyl)-4,5-dihydro-1H-imidazole], the “side effects compared with disopyramide” value in data set [1] was “fewer side effects than disopyramide”.

`c1ccc(C2(c3ccccc3)CC2C2=NCCN2)cc1` (stereo not drawn) [S(−)-cibenzoline]: the “effects of QcTF and QRS prolongation (electrocardiography)” value was “QcTF and QRS prolongation were confirmed” in data set [2]; “QcTF and QRS prolongation were confirmed” in data set [3] (cohorts 1 and 2: 200 mg and 300 mg, single oral administration). In addition, in data set [2] (compared to cohort 6 (racemic mixture 150 mg 3 times a day, 14 days)), the “side effects for multiple administration (safety and tolerability)” value is on record as “did not cause significant side effects”. For the same molecule, in data set [3] (200 mg and 300 mg once a day, single oral administration, compared to cohort 3 (racemic mixture 150 mg 3 times a day)), the “side effects (safety and tolerability)” value was “did not cause significant side effects”. The QRS in data set [3] (setting [4]) was 102 ms; in data set [3] (setting [5]) it was 107 ms; in data set [3] (setting [6]), 99 ms; in data set [3] (setting [7]), 92 ms; in data set [3] (setting [8]) it was 107 ms; in data set [3] (setting [9]), 116 ms. Also, the values for the QRS in data set [3] (setting [10]) and in data set [3] (setting [11]) were 107 ms and 101 ms, respectively. Further, the QTcF in data set [3] (setting [4]) is listed as 412 ms; in data set [3] (setting [5]), 426 ms; in data set [3] (setting [6]), 408 ms; in data set [3] (setting [7]) it was 406 ms; in data set [3] (setting [8]) it was 419 ms; in data set [3] (setting [9]) it was 429 ms. Also, the QTcF came to 415 ms in data set [3] (setting [10]) and 411 ms in data set [3] (setting [11]).
